Experimental data: patent US12570642B2, “GLP-IR modulating compounds” (Gilead Sciences, Inc., priority 2021, dated 2026)

Target: GLP-1R (Homo sapiens, UniProt P43220)
Experiment: GLP-1R Activation - cAMP Assay
Format: cell-based
Details: cAMP increase in CHO cells stably expressing GLP-1R; each compound run on one of the two cAMP assays (Assay 1 or Assay 2, not specified)
In short: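 CHO cells stably expressing GLP-1R, plated at 1,000 cells/well overnight, then equilibrated 1 h in HBSS with 20 mM Hepes and 0.1% BSA. Agonist added as 10-point dose response for 30 min at 37 °C. cAMP measured by HTRF (Cisbio Gs Dynamic kit); EC50 from sigmoidal fit.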

Sequence of GLP-1R (P43220 24-463): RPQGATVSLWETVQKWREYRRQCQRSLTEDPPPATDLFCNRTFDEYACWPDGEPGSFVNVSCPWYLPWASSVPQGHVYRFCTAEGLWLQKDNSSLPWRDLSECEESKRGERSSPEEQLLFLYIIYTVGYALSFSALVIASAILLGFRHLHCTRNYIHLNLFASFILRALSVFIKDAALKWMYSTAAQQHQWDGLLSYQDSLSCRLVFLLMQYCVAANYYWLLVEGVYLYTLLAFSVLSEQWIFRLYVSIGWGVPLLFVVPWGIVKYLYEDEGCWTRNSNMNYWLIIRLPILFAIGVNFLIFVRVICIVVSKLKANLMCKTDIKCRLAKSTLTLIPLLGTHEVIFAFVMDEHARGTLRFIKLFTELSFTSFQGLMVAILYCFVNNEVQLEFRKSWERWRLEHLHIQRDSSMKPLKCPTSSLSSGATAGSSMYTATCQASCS

EC50 [pM]	SMILES
190	CC1(C)COC[C@H]1n1c(Cc2cc(F)c(-c3cccc(OCc4ccc(Cl)cc4F)n3)cc2F)nc2cc(F)c(C(=O)O)cc21 [Example 417, (S)-2-(4-(6-((4-chloro-2-fluorobenzyl)oxy)pyridin-2-yl)-2,5-difluorobenzyl)-1-(4,4-dimethyltetrahydrofuran-3-yl)-5-fluoro-1H-benzo[d]imidazole-6-carboxylic acid]
199	CC1(C)COC[C@H]1n1c(Cc2cc(F)c(-c3cccc(OCc4ccc(C#N)cc4)n3)cc2F)nc2cc(F)c(C(=O)O)cc21 [Example 418, (S)-2-(4-(6-((4-cyanobenzyl)oxy)pyridin-2-yl)-2,5-difluorobenzyl)-1-(4,4-dimethyltetrahydrofuran-3-yl)-5-fluoro-1H-benzo[d]imidazole-6-carboxylic acid]
112	CC1(C)COC[C@H]1n1c(Cc2cc(F)c(-c3cccc(OCc4ccc(C#N)cc4F)n3)cc2F)nc2cc(F)c(C(=O)O)cc21 [Example 419, (S)-2-(4-(6-((4-cyano-2-fluorobenzyl)oxy)pyridin-2-yl)-2,5-difluorobenzyl)-1-(4,4-dimethyltetrahydrofuran-3-yl)-5-fluoro-1H-benzo[d]imidazole-6-carboxylic acid]
413	CC1(C)COC[C@H]1n1c(Cc2cc(F)c(-c3cccc(OCc4ccc(C(F)F)nc4)n3)cc2F)nc2ccc(C(=O)O)cc21 [Example 420, (S)-2-(4-(6-((6-(difluoromethyl)pyridin-3-yl)methoxy)pyridin-2-yl)-2,5-difluorobenzyl)-1-(4,4-dimethyltetrahydrofuran-3-yl)-1H-benzo[d]imidazole-6-carboxylic acid]
3020	CC1(C)COC[C@H]1n1c(Cc2cc(F)c(-c3cccc(OCc4ccc(C#N)cc4)n3)cc2F)nc2cnc(C(=O)O)cc21 [Example 421, (S)-2-(4-(6-((4-cyanobenzyl)oxy)pyridin-2-yl)-2,5-difluorobenzyl)-1-(4,4-dimethyltetrahydrofuran-3-yl)-1H-imidazo[4,5-c]pyridine-6-carboxylic acid]
3160	CC1(C)COC[C@H]1n1c(Cc2cc(F)c(-c3cccc(OCc4ccc(C#N)cc4F)n3)cc2F)nc2cnc(C(=O)O)cc21 [Example 422, (S)-2-(4-(6-((4-cyano-2-fluorobenzyl)oxy)pyridin-2-yl)-2,5-difluorobenzyl)-1-(4,4-dimethyltetrahydrofuran-3-yl)-1H-imidazo[4,5-c]pyridine-6-carboxylic acid]
2540	CC1(C)COC[C@H]1n1c(Cc2cc(F)c(-c3cccc(OCc4ccc(Cl)cc4F)n3)cc2F)nc2cnc(C(=O)O)cc21 [Example 423, (S)-2-(4-(6-((4-chloro-2-fluorobenzyl)oxy)pyridin-2-yl)-2,5-difluorobenzyl)-1-(4,4-dimethyltetrahydrofuran-3-yl)-1H-imidazo[4,5-c]pyridine-6-carboxylic acid]
590	CC1(C)COC[C@H]1n1c(Cc2cc(F)c(-c3cccc(OCc4ccc(OCC(F)(F)F)nc4)n3)cc2F)nc2ccc(C(=O)O)cc21 [Example 424, (S)-2-(2,5-difluoro-4-(6-((6-(2,2,2-trifluoroethoxy)pyridin-3-yl)methoxy)pyridin-2-yl)benzyl)-1-(4,4-dimethyltetrahydrofuran-3-yl)-1H-benzo[d]imidazole-6-carboxylic acid]
494	CC1(C)COC[C@H]1n1c(Cc2cc(F)c(-c3cccc(OCc4ccc(C(F)(F)F)nc4)n3)cc2F)nc2ccc(C(=O)O)cc21 [Example 425, (S)-2-(2,5-difluoro-4-(6-((6-(trifluoromethyl)pyridin-3-yl)methoxy)pyridin-2-yl)benzyl)-1-(4,4-dimethyltetrahydrofuran-3-yl)-1H-benzo[d]imidazole-6-carboxylic acid]
1480	Cn1cccc(COc2cccc(-c3cc(F)c(Cc4nc5ccc(C(=O)O)cc5n4[C@@H]4COCC4(C)C)cc3F)n2)c1=O [Example 426, (S)-2-(2,5-difluoro-4-(6-((1-methyl-2-oxo-1,2-dihydropyridin-3-yl)methoxy)pyridin-2-yl)benzyl)-1-(4,4-dimethyltetrahydrofuran-3-yl)-1H-benzo[d]imidazole-6-carboxylic acid]
501	Cn1ccc(COc2cccc(-c3cc(F)c(Cc4nc5ccc(C(=O)O)cc5n4[C@@H]4COCC4(C)C)cc3F)n2)cc1=O [Example 427, (S)-2-(2,5-difluoro-4-(6-((1-methyl-2-oxo-1,2-dihydropyridin-4-yl)methoxy)pyridin-2-yl)benzyl)-1-(4,4-dimethyltetrahydrofuran-3-yl)-1H-benzo[d]imidazole-6-carboxylic acid]
105	CC1(C)COC[C@H]1n1c(Cc2cc(F)c(-c3ccc(F)c(OCc4ccc(C#N)cc4F)n3)cc2F)nc2ccc(C(=O)O)nc21 [Example 428, (S)-2-(4-(6-((4-cyano-2-fluorobenzyl)oxy)-5-fluoropyridin-2-yl)-2,5-difluorobenzyl)-3-(4,4-dimethyltetrahydrofuran-3-yl)-3H-imidazo[4,5-b]pyridine-5-carboxylic acid]
139	CC1(C)COC[C@H]1n1c(Cc2cc(F)c(-c3cccc(OCc4ccncc4F)n3)cc2F)nc2ccc(C(=O)O)cc21 [Example 429, (S)-2-(2,5-difluoro-4-(6-((3-fluoropyridin-4-yl)methoxy)pyridin-2-yl)benzyl)-1-(4,4-dimethyltetrahydrofuran-3-yl)-1H-benzo[d]imidazole-6-carboxylic acid]
20	COc1cnccc1COc1cccc(-c2cc(F)c(Cc3nc4ccc(C(=O)O)cc4n3[C@@H]3COCC3(C)C)cc2F)n1 [Example 430, (S)-2-(2,5-difluoro-4-(6-((3-methoxypyridin-4-yl)methoxy)pyridin-2-yl)benzyl)-1-(4,4-dimethyltetrahydrofuran-3-yl)-1H-benzo[d]imidazole-6-carboxylic acid]
377	CC1(C)COC[C@H]1n1c(Cc2cc(F)c(-c3cccc(OCc4ccc(C5CC5)cc4)n3)cc2F)nc2ccc(C(=O)O)cc21 [Example 431, (S)-2-(4-(6-((4-cyclopropylbenzyl)oxy)pyridin-2-yl)-2,5-difluorobenzyl)-1-(4,4-dimethyltetrahydrofuran-3-yl)-1H-benzo[d]imidazole-6-carboxylic acid]
114	CC1(C)COC[C@H]1n1c(Cc2cc(F)c(-c3ccc(Cl)c(OCc4ccc(C#N)cc4)n3)cc2F)nc2ccc(C(=O)O)cc21 [Example 432, (S)-2-(4-(5-chloro-6-((4-cyanobenzyl)oxy)pyridin-2-yl)-2,5-difluorobenzyl)-1-(4,4-dimethyltetrahydrofuran-3-yl)-1H-benzo[d]imidazole-6-carboxylic acid]
209	CC1(C)COC[C@H]1n1c(Cc2cc(F)c(-c3ccc(Cl)c(OCc4ccc(Cl)cc4)n3)cc2F)nc2ccc(C(=O)O)cc21 [Example 433, (S)-2-(4-(5-chloro-6-((4-chlorobenzyl)oxy)pyridin-2-yl)-2,5-difluorobenzyl)-1-(4,4-dimethyltetrahydrofuran-3-yl)-1H-benzo[d]imidazole-6-carboxylic acid]
58	CC1(C)COC[C@H]1n1c(Cc2cc(F)c(-c3ccc(Cl)c(OCc4ccc(C#N)cc4F)n3)cc2F)nc2ccc(C(=O)O)cc21 [Example 434, (S)-2-(4-(5-chloro-6-((4-cyano-2-fluorobenzyl)oxy)pyridin-2-yl)-2,5-difluorobenzyl)-1-(4,4-dimethyltetrahydrofuran-3-yl)-1H-benzo[d]imidazole-6-carboxylic acid]
